Measurements: paper PMC7571175, “N-Benzyl Residues as the P1′ Substituents in Phosphorus-Containing Extended Transition State Analog Inhibitors of Metalloaminopeptidases” (Molecules, 2020)
pKi: −log10 of the molar value. Read-outs that look alike come from different tables or passages of the source.

How the values were obtained:
[1] = target: T1, microsomal alanyl aminopeptidase from porcine kidney (SsAPN) (Sus scrofa, UniProt P15145); assay: Inhibition of porcine kidney alanyl aminopeptidase (enzyme kinetics); assay type: biochemical; settings: porcine APN; compounds assayed as racemic mixtures
T1 construct: Microsomal alanyl aminopeptidase from porcine kidney (SsAPN) was purchased from Sigma-Aldrich; purchased Sigma-Aldrich (Poznań, Poland); host or cells: porcine kidney
T1 sequence (P15145 1-963): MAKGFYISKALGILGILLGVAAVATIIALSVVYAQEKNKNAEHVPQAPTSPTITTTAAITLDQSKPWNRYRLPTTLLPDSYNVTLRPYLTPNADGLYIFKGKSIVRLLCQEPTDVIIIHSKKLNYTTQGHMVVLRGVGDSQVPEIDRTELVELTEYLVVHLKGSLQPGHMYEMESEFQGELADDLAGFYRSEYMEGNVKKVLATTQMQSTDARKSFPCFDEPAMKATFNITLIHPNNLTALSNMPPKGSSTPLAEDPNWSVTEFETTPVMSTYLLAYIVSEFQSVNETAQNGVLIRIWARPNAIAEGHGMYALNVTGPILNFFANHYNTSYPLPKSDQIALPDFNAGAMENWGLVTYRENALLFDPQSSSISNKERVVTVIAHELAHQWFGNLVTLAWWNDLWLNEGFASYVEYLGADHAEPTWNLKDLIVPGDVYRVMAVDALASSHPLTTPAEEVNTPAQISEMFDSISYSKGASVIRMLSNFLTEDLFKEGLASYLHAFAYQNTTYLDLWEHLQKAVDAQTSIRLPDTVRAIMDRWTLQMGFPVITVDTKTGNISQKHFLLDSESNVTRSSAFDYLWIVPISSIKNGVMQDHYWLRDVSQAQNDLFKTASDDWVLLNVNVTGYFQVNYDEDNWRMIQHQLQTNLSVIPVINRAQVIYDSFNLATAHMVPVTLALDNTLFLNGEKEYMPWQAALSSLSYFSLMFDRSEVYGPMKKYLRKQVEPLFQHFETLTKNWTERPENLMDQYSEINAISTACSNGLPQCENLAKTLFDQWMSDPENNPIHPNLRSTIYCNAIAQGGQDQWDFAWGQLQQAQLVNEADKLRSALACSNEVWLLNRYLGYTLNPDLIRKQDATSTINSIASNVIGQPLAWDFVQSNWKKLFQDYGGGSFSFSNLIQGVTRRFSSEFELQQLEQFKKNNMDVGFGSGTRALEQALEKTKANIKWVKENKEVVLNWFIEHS
Description: (§1) Chemical and biochemical materials were purchased from Sigma-Aldrich (Poznań, Poland) and Avantor Performance Materials (Gliwice, Poland), and were used without further purification. Fluorogenic substrate Ala-AMC (L-alanine-4-methylcoumaryl-7-amide) was purchased from PeptaNova (Sandhausen, Germany). Microsomal alanyl aminopeptidase from porcine kidney (SsAPN) was purchased from Sigma-Aldrich (Poznań, Poland), and recombinant human alanine aminopeptidase (HsAPN) from R&D System (Minneapolis, MN, USA). Leucine aminopeptidase from porcine kidney (SsLAP) and barley seeds (HvLAP) were isolated and purified according to the procedures described previously. ^1H, ^13C, and ^31P NMR spectra were recorded on a 400YH (JEOL, Tokyo, Japan) spectrometer at 295 K. Mass spectra analyses were performed on a spectrometer LC-MS QDa (Waters e2695, 2489 UV/Vis Detector, Acquity QDa detector). HRMS spectra were registered using a Waters LCT Premier XE mass spectrometer (electrospray ionization, ESI) (Waters, Milford, MA, USA). The progress of the enzymatic reactions was monitored spectrophotometrically (UV-VIS Spectrophotometer, JASCO V-730) by following the change in absorbance at 405 nm (formation of p-nitroaniline), or by measuring fluorescence with a spectrofluorometer SpectraMax Gemini EM (Molecular Devices, San Jose, CA, USA) operating at two wavelengths: excitation 355 nm and emission 460 nm (for AMC).
(§2) The current studies followed the methodologies of the enzyme kinetic experiments, with calculation of the inhibition constants, and the mechanism of inhibition, which are presented in detail in our previous papers: For microsomal alanyl aminopeptidase from porcine kidney, recombinant human alanine aminopeptidase, leucine aminopeptidase from porcine kidney, and leucine aminopeptidase from barley seeds ([…]).

[2] = target: T2, leucine aminopeptidase from porcine kidney (SsLAP) (Sus scrofa, UniProt P28839); assay: Inhibition of porcine kidney leucine aminopeptidase (enzyme kinetics); assay type: biochemical; settings: porcine kidney LAP; compounds assayed as racemic mixtures
T2 construct: Leucine aminopeptidase from porcine kidney (SsLAP) [26] and barley seeds (HvLAP) [21] were isolated and purified; from tissue; host or cells: porcine kidney
T2 sequence (P28839 1-519): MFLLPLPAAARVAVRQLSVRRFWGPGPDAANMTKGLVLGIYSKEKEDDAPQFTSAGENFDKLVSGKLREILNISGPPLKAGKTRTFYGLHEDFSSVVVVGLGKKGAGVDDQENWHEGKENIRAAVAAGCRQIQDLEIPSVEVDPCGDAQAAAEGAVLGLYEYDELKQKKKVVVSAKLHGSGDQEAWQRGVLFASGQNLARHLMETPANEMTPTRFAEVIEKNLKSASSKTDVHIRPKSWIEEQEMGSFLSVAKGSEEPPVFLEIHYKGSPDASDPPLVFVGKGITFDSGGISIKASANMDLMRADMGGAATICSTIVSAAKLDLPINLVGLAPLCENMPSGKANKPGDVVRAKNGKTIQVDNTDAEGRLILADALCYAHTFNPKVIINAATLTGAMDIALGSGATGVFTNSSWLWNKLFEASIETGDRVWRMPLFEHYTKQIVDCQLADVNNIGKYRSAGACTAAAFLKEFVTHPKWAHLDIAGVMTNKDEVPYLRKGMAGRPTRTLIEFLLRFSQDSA
Description: as §1, §2

[3] = target: T3, recombinant human alanine aminopeptidase (HsAPN) (Homo sapiens, UniProt P15144); assay: Inhibition of recombinant human alanine aminopeptidase (enzyme kinetics); assay type: biochemical; settings: for pKi: human APN; for Activity for human APN (in words): summary statement
T3 construct: purchased R&D System (Minneapolis, MN, USA)
T3 sequence (P15144 whole entry): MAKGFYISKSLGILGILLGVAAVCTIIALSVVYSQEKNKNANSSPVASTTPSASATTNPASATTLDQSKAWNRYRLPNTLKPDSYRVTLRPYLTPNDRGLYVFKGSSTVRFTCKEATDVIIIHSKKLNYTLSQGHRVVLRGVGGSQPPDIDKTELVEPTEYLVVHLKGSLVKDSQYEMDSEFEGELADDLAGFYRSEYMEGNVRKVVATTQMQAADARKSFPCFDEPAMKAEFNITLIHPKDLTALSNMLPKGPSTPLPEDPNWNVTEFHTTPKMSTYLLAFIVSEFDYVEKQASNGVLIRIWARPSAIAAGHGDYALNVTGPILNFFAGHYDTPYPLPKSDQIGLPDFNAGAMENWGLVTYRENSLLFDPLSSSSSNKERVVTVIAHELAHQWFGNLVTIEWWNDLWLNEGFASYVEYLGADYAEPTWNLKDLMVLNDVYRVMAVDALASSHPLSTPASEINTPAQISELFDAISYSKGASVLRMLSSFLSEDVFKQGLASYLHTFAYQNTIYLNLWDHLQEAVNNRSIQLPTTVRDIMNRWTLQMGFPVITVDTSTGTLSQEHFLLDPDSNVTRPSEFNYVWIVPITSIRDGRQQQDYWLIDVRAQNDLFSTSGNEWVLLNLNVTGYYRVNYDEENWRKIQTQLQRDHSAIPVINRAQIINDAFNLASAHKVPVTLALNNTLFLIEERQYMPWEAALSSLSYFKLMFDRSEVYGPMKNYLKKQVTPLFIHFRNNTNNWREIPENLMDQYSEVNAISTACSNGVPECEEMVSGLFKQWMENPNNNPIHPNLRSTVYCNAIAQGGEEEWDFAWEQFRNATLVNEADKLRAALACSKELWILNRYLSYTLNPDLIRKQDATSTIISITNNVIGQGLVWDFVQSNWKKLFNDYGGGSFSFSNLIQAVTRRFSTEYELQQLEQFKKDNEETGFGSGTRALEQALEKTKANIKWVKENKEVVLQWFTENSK
Description: as §1, §2

[4] = target: T1, microsomal alanyl aminopeptidase from porcine kidney (SsAPN); design: method as in doi:10.1016/j.tetlet.2011.04.037; settings: porcine APN; reference compound, reported previously; cited from earlier work
[5] = target: T2, leucine aminopeptidase from porcine kidney (SsLAP); design: method as in doi:10.1016/j.tetlet.2011.04.037; settings: porcine kidney LAP; reference compound, reported previously; cited from earlier work
thermolysin = settings: competitive tight-binding inhibitor; cited from earlier work
[6] = compounds assayed as racemic mixtures, read-out: Ki HsAPN

| pKi [1] | pKi [2] | pKi ([3]; value of the abstract, read-out: Ki human alanyl aminopeptidase) | pKi [3, 6] | Activity for human APN (in words) [3] | Structure (SMILES) | pKi [4] | pKi [5] | Ki thermolysin (in words) (thermolysin) |
| --- | --- | --- | --- | --- | --- | --- | --- | --- |
| 4.20 | 4.54 | – | – | – | NC(CCc1ccccc1)P(=O)(O)CNCC(=O)O (stereo not drawn) [6g, N-{[1-Amino-3-phenylpropyl(hydroxy)phosphoryl]methyl}aminoacetic acid] | – | – | – |
| 5.11 | 3.97 | 6.99 | 7.00 | potent submicromolar activity | NC(CCc1ccccc1)P(=O)(O)CN(CC(=O)O)Cc1ccc(Cl)cc1Cl (stereo not drawn) [6a, N-{[1-Amino-3-phenylpropyl(hydroxy)phosphoryl]methyl}-N-2,4-dichlorobenzylaminoacetic acid] | – | – | – |
| 4.47 | 4.57 | – | 5.85 | – | NC(CCc1ccccc1)P(=O)(O)CN(CC(=O)O)Cc1ccc(C(=O)O)cc1 (stereo not drawn) [6c, N-{[1-Amino-3-phenylpropyl(hydroxy)phosphoryl]methyl}-N-4-carboxybenzylaminoacetic acid] | – | – | – |
| 5.24 | 3.77 | – | 6.89 | potent submicromolar activity | NC(CCc1ccccc1)P(=O)(O)CN(CC(=O)O)Cc1ccc(Br)cc1 (stereo not drawn) [6b, N-{[1-Amino-3-phenylpropyl(hydroxy)phosphoryl]methyl}-N-4-bromobenzylaminoacetic acid] | – | – | – |
| 4.77 | 4.28 | – | 6.62 | potent submicromolar activity | NC(CCc1ccccc1)P(=O)(O)CN(CC(=O)O)Cc1ccc([N+](=O)[O-])cc1 (stereo not drawn) [6d, N-{[1-Amino-3-phenylpropyl(hydroxy)phosphoryl]methyl}-N-4-nitrobenzylaminoacetic acid] | – | – | – |
| – | – | – | – | – | NC(CCc1ccccc1)P(=O)(O)CN(CC(=O)O)Cc1ccccc1 (stereo not drawn) [compound 1] | 5.52 | 4.28 | – |
| – | – | – | – | – | CC(C)CC(NP(=O)(O)C(Cc1ccccc1)NC(=O)OCc1ccccc1)C(=O)NC(C)C(=O)O (stereo not drawn) [Cbz-PheP[NH]Leu-Ala-OH] | – | – | picomolar range |
